The results in this text go back to patent US10161931B2, “Methods for determining susceptibility to coreceptor inhibitors” (Monogram Biosciences, Inc., priority 2006, dated 2018).

Assay [1] deals with X4-tropic clone 42x. Description: Entry inhibitor susceptibility, pseudotyped HIV-1 entry (luciferase) assay, env clone 42x (c42). In kind it is cell-based. The protocol:
(§1) Susceptibility assays for HIV-1 entry inhibitors were performed using packaging host cells consisting of the human embryonic kidney cell line 293 (Cell Culture Facility, UC San Francisco, SF, Calif.) and target host cells consisting of a human osteosarcoma (HOS) cell line expressing CD4 (HT4) plus CCR5, and CXCR4, astrocytoma (U-87) cell lines expressing either CD4 and CCR5 or CD4 and CXCR4, or glioma (NP2) cell lines expressing CD4 and either CCR5 or CXCR4.
(§2) Drug susceptibility and tropism testing was performed using pHIVenv and pHIVluc or pHIVlucΔU3. […] After infection ([…]) the target cells were lysed and luciferase activity was measured. […] The amount of luciferase activity detected in the infected cells was used as a direct measure of “infectivity” (FIGS. 1 and 2). […] Drug susceptibility was assessed by comparing the infectivity in the absence of drug to infectivity in the presence of drug. Relative drug susceptibility can be quantified by comparing the susceptibility of the “test” virus to the susceptibility of a well-characterized reference virus (wild type) derived from a molecular clone of HIV-1, for example NL4-3 or PIXB2.
(§3) The ability of a virus to enter a cell was assessed by comparing the amount of luciferase activity produced in each cell type, e.g., cells expressing CD4 and either CCR5 or CXCR4, both in the presence and absence of drug. […]

Assay [2] concerns dual-X clone 11D. In words: Entry inhibitor susceptibility, pseudotyped HIV-1 entry (luciferase) assay, env clone 11D (c11). Type of assay: cell-based. To be noted: Human immunodeficiency virus 1; clone c11, tropism dual; read-out: Sensitivity of Entry Inhibitors. The protocol:
as §1, §2, §3

The test system of assay [3] is dual-R clone 86d. In words: Entry inhibitor susceptibility, pseudotyped HIV-1 entry (luciferase) assay, env clone 86d (c86). In kind it is cell-based. The procedure: as §1, §2, §3
Assay [4] deals with dual-X clone 88D. Description: Entry inhibitor susceptibility, pseudotyped HIV-1 entry (luciferase) assay, env clone 88D (c88). In kind it is cell-based. To be noted: Human immunodeficiency virus 1; clone c88, tropism dual; read-out: Sensitivity of Entry Inhibitors. The protocol: as §1, §2, §3
Assay [5] relates to dual-R clone 21d. Description: Entry inhibitor susceptibility, pseudotyped HIV-1 entry (luciferase) assay, env clone 21d (c21). In kind it is cell-based. To be noted: dual-R clone 21d compared to R5-, X4- and dual-X tropic clones. The procedure: as §1, §2, §3
Assay [6] concerns Isogenic viruses containing one or two specific mutations in the gp41 transmembrane envelope protein. In words: T-20 susceptibility of isogenic viruses with gp41 mutations (FIG. 4B). In kind it is cell-based, HIV. To be noted: cells expressing CD4, CCR5 and CXCR4, gp41 mutants vs wild type. The protocol:
Cells expressing CD4, CCR5 and CXCR4 were infected in the absence of T-20 and over a wide range of T-20 concentrations (x-axis log 10 scale). The percent inhibition of viral replication (y-axis) was determined by comparing the amount of luciferase produced in infected cells in the presence of T-20 to the amount of luciferase produced in the absence of T-20. Isogenic viruses containing one or two specific mutations in the gp41 transmembrane envelope protein were tested (highlighted in red in the figure legend). Drug susceptibility is quantified by determining the concentration of T-20 required to inhibit 50% of viral replication (IC50, shown as vertical dashed lines). […]
as §2

With `c1cc(CN2CCCNCCNCCCNCC2)ccc1CN1CCCNCCNCCCNCC1` [AMD], the IC50 turned out to be 45.8 nM in assay [1] (Human immunodeficiency virus 1, clone c42, tropism X4, read-out: Sensitivity of Entry Inhibitors); 3.4 nM in assay [2]; 5.6 nM in assay [3] (Human immunodeficiency virus 1, clone c86, tropism dual-R, read-out: Sensitivity of Entry Inhibitors); 8.7 nM in assay [4]. Also, the “sensitivity compared to other clones (in words)” value in assay [1] (X4 clone 42d (so in the source)) is on record as “subtle reduction in sensitivity”.
For the compound enfuvirtide, the fold-reduced susceptibility was 4-5 fold in assay [5]; 4-5 fold in assay [3] (dual-R clone 86d compared to R5-, X4- and dual-X tropic clones). For the same compound, the “susceptibility to fusion inhibitor (in words)” value in assay [6] is “reduced susceptibility”.
